Like-named read-outs stand apart in the source and are kept apart here.
Target: T1, BRM (Homo sapiens, UniProt P51531)
T1 construct: In-Cell Western Screen of BRM Degradation in SW1573 Cells; endogenous in cells; host or cells: SW1573
Assay: In-cell Western screen of BRM degradation in SW1573 cells (Dmax and DC50)
Assay type: cell-based
Procedure, shortened: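 Adherent SW1573 cultures exposed to test compounds for 18-20 h were processed for in-cell Western after PFA fixation and detergent permeabilization. BRM degradation was reported as Dmax and DC50.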

[1] = BRM degradation, SW1573 cells, read-out: DC50
[2] = SW1573, % degraded, when tested at the top concentration of between 0.3 and 10 μM, read-out: BRM Dmax (%)

T1 sequence (P51531 whole entry): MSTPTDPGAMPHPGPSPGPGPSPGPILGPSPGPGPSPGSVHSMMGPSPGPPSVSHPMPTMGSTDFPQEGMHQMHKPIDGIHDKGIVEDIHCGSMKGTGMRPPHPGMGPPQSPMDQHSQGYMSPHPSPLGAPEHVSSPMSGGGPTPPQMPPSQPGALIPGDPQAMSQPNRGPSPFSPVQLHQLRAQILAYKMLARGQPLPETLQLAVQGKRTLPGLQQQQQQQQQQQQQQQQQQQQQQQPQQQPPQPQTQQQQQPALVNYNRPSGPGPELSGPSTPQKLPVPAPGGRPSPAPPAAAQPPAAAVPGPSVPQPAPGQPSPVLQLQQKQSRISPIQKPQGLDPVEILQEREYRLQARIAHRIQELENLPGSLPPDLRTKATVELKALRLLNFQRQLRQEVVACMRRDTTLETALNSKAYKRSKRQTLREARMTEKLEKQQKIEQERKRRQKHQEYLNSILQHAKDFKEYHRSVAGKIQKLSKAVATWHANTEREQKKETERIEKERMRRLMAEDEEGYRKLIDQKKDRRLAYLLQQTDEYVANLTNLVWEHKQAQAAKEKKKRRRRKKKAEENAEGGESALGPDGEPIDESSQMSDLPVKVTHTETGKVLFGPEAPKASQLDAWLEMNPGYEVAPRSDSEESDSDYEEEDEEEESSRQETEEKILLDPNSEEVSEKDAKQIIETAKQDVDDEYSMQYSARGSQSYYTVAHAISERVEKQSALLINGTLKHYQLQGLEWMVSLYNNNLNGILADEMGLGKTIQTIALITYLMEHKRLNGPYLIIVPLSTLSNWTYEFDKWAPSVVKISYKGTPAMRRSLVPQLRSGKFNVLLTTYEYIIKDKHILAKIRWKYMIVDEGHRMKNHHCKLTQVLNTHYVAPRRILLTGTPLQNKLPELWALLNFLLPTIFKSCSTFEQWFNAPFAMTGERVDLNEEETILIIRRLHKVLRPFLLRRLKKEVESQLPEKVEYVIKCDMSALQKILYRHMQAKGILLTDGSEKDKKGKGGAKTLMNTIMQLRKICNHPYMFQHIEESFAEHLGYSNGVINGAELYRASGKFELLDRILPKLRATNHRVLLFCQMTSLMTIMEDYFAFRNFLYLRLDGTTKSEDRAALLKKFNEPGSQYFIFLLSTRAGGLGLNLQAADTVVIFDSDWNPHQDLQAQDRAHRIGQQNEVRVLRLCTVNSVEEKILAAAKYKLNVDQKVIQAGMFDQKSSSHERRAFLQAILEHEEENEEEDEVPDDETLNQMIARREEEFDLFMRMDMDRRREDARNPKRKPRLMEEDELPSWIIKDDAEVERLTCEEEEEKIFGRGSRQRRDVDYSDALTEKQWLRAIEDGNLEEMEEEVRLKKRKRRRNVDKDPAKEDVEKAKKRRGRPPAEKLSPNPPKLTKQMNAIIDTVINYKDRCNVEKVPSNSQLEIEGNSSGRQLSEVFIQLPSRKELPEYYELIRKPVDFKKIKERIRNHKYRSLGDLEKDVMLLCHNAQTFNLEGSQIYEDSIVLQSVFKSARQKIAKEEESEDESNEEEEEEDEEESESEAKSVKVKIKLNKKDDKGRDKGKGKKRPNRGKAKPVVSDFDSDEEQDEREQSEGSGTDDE

Structure (SMILES)	DC50 [1]	Dmax [2]	other results
Cc1ncsc1-c1ccc([C@H](C)NC(=O)[C@@H]2C[C@@H](O)CN2C(=O)C(c2cc(N3CCC(C(C)(C)N4CCC(O[C@H]5C[C@H](Oc6cc(N7C8CCC7CN(c7cc(-c9ccccc9O)nnc7N)C8)ccn6)C5)CC4)CC3)no2)C(C)C)cc1 (stereo partly drawn) [compound 692, (2S,4R)-1-(2-(3-(4-(2-(4-((1r,3r)-3-((4-(3-(3-amino-6-(2-hydroxyphenyl)pyridazin-4-yl)-3,8-diazabicyclo[3.2.1]octan-8-yl)pyridin-2-yl)oxy)cyclobutoxy)piperidin-1-yl)propan-2-yl)piperidin-1-yl)isoxazol-5-yl)-3-methylbutanoyl)-4-hydroxy-N-((S)-1-(4-(4-methylthiazol-5-yl)phenyl)ethyl)pyrrolidine-2-carboxamide]	< 2.5 nM		Dmax (BRM degradation, SW1573 cells, read-out: Dmax (% degraded)): > 75%
Cc1ncsc1-c1ccc(CNC(=O)[C@@H]2C[C@@H](O)CN2C(=O)[C@@H](NC(=O)COCCOCCn2cc(-c3cc(-c4ccccc4O)nnc3N)cn2)C(C)(C)C)cc1 [compound 11, (2S,4R)-1-((S)-2-(2-(2-(2-(4-(3-amino-6-(2-hydroxyphenyl)pyridazin-4-yl)-1H-pyrazol-1-yl)ethoxy)ethoxy)acetamido)-3,3-dimethylbutanoyl)-4-hydroxy-N-(4-(4-methylthiazol-5-yl)benzyl)pyrrolidine-2-carboxamide]	> 30 nM		Dmax (BRM degradation, SW1573 cells, when tested at the top concentration of between 0.3 and 10 μM, read-out: Dmax (%) (% degraded)): > 75%
Cc1ncsc1-c1ccc([C@H](C)NC(=O)[C@@H]2C[C@@H](O)CN2C(=O)[C@@H](c2cc(OCCN3CCC(O[C@H]4C[C@H](Oc5cc(/C=C/c6cc(-c7ccccc7O)nnc6N)ccn5)C4)CC3)no2)C(C)C)cc1 [compound 428, (2S,4R)-1-((R)-2-(3-(2-(4-((1r,3R)-3-((4-((E)-2-(3-amino-6-(2-hydroxyphenyl)pyridazin-4-yl)vinyl)pyridin-2-yl)oxy)cyclobutoxy)piperidin-1-yl)ethoxy)isoxazol-5-yl)-3-methylbutanoyl)-4-hydroxy-N-((S)-1-(4-(4-methylthiazol-5-yl)phenyl)ethyl)pyrrolidine-2-carboxamide]		> 75%	DC50 (degradation of BRM, read-out: BRM DC50): < 2.5 nM
Cc1ncsc1-c1ccc([C@H](C)NC(=O)[C@@H]2C[C@@H](O)CN2C(=O)[C@H](c2cc(OCCC3CCN(CCOc4cc(N5C6CCC5CN(c5cc(-c7ccccc7O)nnc5N)C6)ccn4)CC3)no2)C(C)C)cc1 [compound 510, (2S,4R)-1-((2S)-2-(3-(2-(1-(2-((4-(3-(3-amino-6-(2-hydroxyphenyl)pyridazin-4-yl)-3,8-diazabicyclo[3.2.1]octan-8-yl)pyridin-2-yl)oxy)ethyl)piperidin-4-yl)ethoxy)isoxazol-5-yl)-3-methylbutanoyl)-4-hydroxy-N-((S)-1-(4-(4-methylthiazol-5-yl)phenyl)ethyl)pyrrolidine-2-carboxamide]		> 75%	DC50 (BRM degradation, read-out: BRM DC50): < 2.5 nM
Cc1ncsc1-c1ccc([C@H](C)NC(=O)[C@@H]2C[C@@H](O)CN2C(=O)[C@@H](c2cc(N3CCC(OC4CCN(C[C@H]5C[C@H](Oc6cc(N7C8CCC7CN(c7cc(-c9ccccc9O)nnc7N)C8)ccn6)C5)CC4)CC3)no2)C(C)C)cn1 [compound 476, (2S,4R)-1-((2R)-2-(3-(4-((1-(((1r,3r)-3-((4-(3-(3-amino-6-(2-hydroxyphenyl)pyridazin-4-yl)-3,8-diazabicyclo[3.2.1]octan-8-yl)pyridin-2-yl)oxy)cyclobutyl)methyl)piperidin-4-yl)oxy)piperidin-1-yl)isoxazol-5-yl)-3-methylbutanoyl)-4-hydroxy-N-((S)-1-(6-(4-methylthiazol-5-yl)pyridin-3-yl)ethyl)pyrrolidine-2-carboxamide]		> 75%	DC50 (target protein degradation, read-out: BRM DC50): < 2.5 nM

From patent US12539292B2, “BRM targeting compounds and associated methods of use” (Arvinas Operations, Inc., priority 2018, dated 2026)
